The term IC50 denotes the point on the concentration scale where inhibition reaches its midpoint.

This passage reports IC50 results from patent US20130096149A1, “HETEROARYL COMPOUNDS AND COMPOSITIONS AS PROTEIN KINASE INHIBITORS” (NOVARTIS AG, priority 2010, published 2013).

Chain of b-Raf(V600E) (P15056 whole entry V600E): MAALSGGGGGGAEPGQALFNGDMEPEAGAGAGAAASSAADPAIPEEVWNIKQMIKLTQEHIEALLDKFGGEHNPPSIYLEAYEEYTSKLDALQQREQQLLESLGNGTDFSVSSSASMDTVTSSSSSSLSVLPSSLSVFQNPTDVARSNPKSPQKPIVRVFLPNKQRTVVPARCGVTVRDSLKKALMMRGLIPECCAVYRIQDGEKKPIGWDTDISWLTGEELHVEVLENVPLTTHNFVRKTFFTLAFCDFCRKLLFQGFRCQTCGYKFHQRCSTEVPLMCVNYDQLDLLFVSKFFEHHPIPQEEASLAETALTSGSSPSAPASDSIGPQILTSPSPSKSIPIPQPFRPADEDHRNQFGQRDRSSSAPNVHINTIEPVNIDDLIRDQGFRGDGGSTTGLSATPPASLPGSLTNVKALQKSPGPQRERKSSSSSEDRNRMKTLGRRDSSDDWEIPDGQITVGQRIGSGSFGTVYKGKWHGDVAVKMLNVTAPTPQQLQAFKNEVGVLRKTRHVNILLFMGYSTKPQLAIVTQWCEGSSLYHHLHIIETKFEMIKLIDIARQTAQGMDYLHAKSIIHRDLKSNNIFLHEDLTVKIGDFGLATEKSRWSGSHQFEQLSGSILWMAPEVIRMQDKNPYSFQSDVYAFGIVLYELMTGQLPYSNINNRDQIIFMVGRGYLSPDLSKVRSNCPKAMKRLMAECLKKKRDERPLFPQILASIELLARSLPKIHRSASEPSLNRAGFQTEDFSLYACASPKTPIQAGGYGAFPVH

For the assay, the target named is b-Raf(V600E) (Homo sapiens, UniProt P15056, V600E). As to the kind of experiment: Raf/Mek Amplified Luminescence Proximity Homogeneous Assay (Alpha Screen). Type of assay: biochemical. To be noted: b-Raf(V600E) approximately 4 pM; biotinylated Mek, kinase dead approximately 10 nM; ATP 10 μM; pre-incubation 60 minutes; reaction 3 hours at room temperature; read-out: mut-bRaf IC50. The method, then:
Raf/Mek Amplified Luminescence Proximity Homogeneous Assay
Assay buffer: 50 mM Tris, pH 7.5, 15 mM MgCl2, 0.01% Bovine Serum Albumin (BSA), 1 mM dithiothreitol (DTT) Stop buffer: 60 mM ethylenediaminetetraacetic acid (EDTA), 0.01% Tween® 20 Bead buffer: 50 mM Tris, pH 7.5, 0.01% Tween® 20 […]
biotinylated Mek, kinase dead
Alpha Screen detection kit (available from PerkinElmer™, #6760617R)
Anti phospho-MEK1/2 (available from Cell Signaling Technology, Inc. #9121) 384 well assay plates (White Greiner® plates, #781207) […]
b-Raf(V600E) approximately 4 pM […]
biotinylated Mek, Kinase dead approximately 10 nM
Pre-incubation time with compounds 60 minutes at room temperature
Reaction time 1 or 3 hours at room temperature
Raf and biotinylated Mek, kinase dead, were combined at 2× final concentrations in assay buffer (50 mM Tris, pH 7.5, 15 mM MgCl2, 0.01% BSA and 1 mM DTT) and dispensed 10 μl per well in assay plates (Greiner white 384 well assay plates #781207) containing 0.5 μl of 40× of a raf kinase inhibitor test compound diluted in 100% DMSO. The plate was incubated for 60 minutes at room temperature.
The Raf kinase activity reaction was started by the addition of 10 μL per well of 2×ATP diluted in assay buffer. After 3 hours (bRaf(V600E)) or 1 hour (c-Raf), the reactions were stopped with the addition of 10 μL of stop reagent (60 mM EDTA). Phosphorylated product was measured using a rabbit anti-p-MEK (Cell Signaling, #9121) antibody and the Alpha Screen IgG (ProteinA) detection Kit (PerkinElmer #6760617R), by the addition of 30 μL to the well of a mixture of the antibody (1:2000 dilution) and detection beads (1:2000 dilution of both beads) in bead buffer (50 mM Tris, pH 7.5, 0.01% Tween20). The additions were carried out under dark conditions to protect the detection beads from light. A lid was placed on top of the plate and incubated for 1 hour at room temperature, then the luminescence was read on a PerkinElmer Envision instrument. The concentration of each compound for 50% inhibition (IC50) was calculated by non-linear regression using XL Fit data analysis software.
As for `CCCS(=O)(=O)Nc1cccc(-c2nc(C(C)(C)C)sc2-c2ccnc(NC[C@H](C)NC(=O)OC)n2)c1F` [Example 34], the IC50 amounted to 620 pM.
`CS(=O)(=O)Nc1cccc(-c2nc(C3CC3)oc2-c2ccnc(N)n2)c1Cl` [Example 45]: the IC50 came to 17000 pM.
Take `COC(=O)N[C@@H](C)CNc1nccc(-c2sc(C3CC3)nc2-c2cc(Cl)cc(NS(C)(=O)=O)c2F)n1` [Example 4, (S)-methyl 1-(4-(4-(5-chloro-2-fluoro-3-(methylsulfonamido)phenyl)-2-cyclopropylthiazol-5-yl)pyrimidin-2-ylamino)propan-2-ylcarbamate]: the IC50 was 120 pM.
On to `CCCS(=O)(=O)Nc1cc(Cl)cc(-c2nc(C3CC3)oc2-c2ccnc(NC[C@H](C)NC(=O)OC)n2)c1Cl` [Example 57], for which the IC50 turned out to be 560 pM.
As for `CCCS(=O)(=O)Nc1cc(F)cc(-c2nc(C3CC3)sc2-c2ccnc(N)n2)c1Cl` [Example 13], the IC50 worked out at 130 pM.
As for `COC(=O)N[C@@H](C)CNc1nccc(-c2sc(C3CC3)nc2-c2cc(F)cc(NS(C)(=O)=O)c2Cl)n1` [Example 3, (S)-methyl 1-(4-(4-(2-chloro-5-fluoro-3-(methylsulfonamido)phenyl)-2-cyclopropylthiazol-5-yl)pyrimidin-2-ylamino)propan-2-ylcarbamate], the half-inhibitory concentration (IC50) is 220 pM.
For `CNc1nccc(-c2sc(C(C)(C)C)nc2-c2cccc(NS(C)(=O)=O)c2Cl)n1` [Example 27], the IC50 worked out at 44000 pM.
In the case of `CCCS(=O)(=O)Nc1cccc(-c2nc(C3CC3)sc2-c2ccnc(N)n2)c1Cl` [Example 29], the IC50 is 3400 pM.
As for `CC(C)(C)c1nc(-c2cccc(NS(C)(=O)=O)c2Cl)c(-c2ccnc(N)n2)s1` [Example 24], the IC50 was determined as 46000 pM.
In the case of `CCCS(=O)(=O)Nc1cc(F)cc(-c2nc(C(C)(C)C)sc2-c2ccnc(NC[C@H](C)NC(=O)OC)n2)c1Cl` [Example 10], the IC50 amounted to 330 pM.
For the molecule `CCCS(=O)(=O)Nc1cccc(-c2nc(C3CC3)oc2-c2ccnc(NC[C@H](C)NC(=O)OC)n2)c1Cl` [Example 31], the concentration for half-maximal inhibition (IC50) stood at 1300 pM.
As to `CCCS(=O)(=O)Nc1cccc(-c2nc(C3CC3)oc2-c2ccnc(NC)n2)c1F` [Example 6, N-(3-(2-cyclopropyl-5-(2-(methylamino)pyrimidin-4-yl)oxazol-4-yl)-2-fluorophenyl)propane-1-sulfonamide], the IC50 was 28000 pM.
On to `COC(=O)N[C@@H](C)CNc1nccc(-c2sc(C3CC3)nc2-c2cc(Cl)cc(NS(C)(=O)=O)c2Cl)n1` [Example 55], for which the IC50 came out at 280 pM.
For `CCCS(=O)(=O)Nc1cc(Cl)cc(-c2nc(C3CC3)sc2-c2ccnc(N)n2)c1F` [Example 66], the IC50 worked out at 58 pM.
With `CCCS(=O)(=O)Nc1cc(Cl)cc(-c2nc(C3CC3)oc2-c2ccnc(N)n2)c1Cl` [Example 56] the figure was 22 pM; with `CNc1nccc(-c2oc(C3CC3)nc2-c2cc(Cl)cc(NS(C)(=O)=O)c2Cl)n1` [Example 59], 1500 pM; with `COC(=O)N[C@@H](C)CNc1nccc(-c2oc(C3CC3)nc2-c2cc(Cl)cc(NS(C)(=O)=O)c2F)n1` [Example 5, (S)-methyl 1-(4-(4-(5-chloro-2-fluoro-3-(methylsulfonamido)phenyl)-2-cyclopropyloxazol-5-yl)pyrimidin-2-ylamino)propan-2-ylcarbamate], 820 pM.
For `CCCS(=O)(=O)Nc1cccc(-c2nc(C3CC3)oc2-c2ccnc(NC[C@H](C)NC(=O)OC)n2)c1F` [Example 38], the IC50 turned out to be 590 pM.
In the case of `CCCS(=O)(=O)Nc1cccc(-c2nc(C(C)(C)C)sc2-c2ccnc(NC)n2)c1Cl` [Example 28], the IC50 worked out at 1100 pM.
To `COC(=O)N[C@@H](C)CNc1nccc(-c2sc(C(C)(C)C)nc2-c2cccc(NS(C)(=O)=O)c2F)n1` [Example 36] belongs 430 pM.
With `CCCS(=O)(=O)Nc1cccc(-c2nc(C(C)(C)C)sc2-c2ccnc(N)n2)c1F` [Example 35], the IC50 is 1800 pM.
As for `CCCS(=O)(=O)Nc1cccc(-c2nc(C3CC3)sc2-c2ccnc(NC[C@H](C)NC(=O)OC)n2)c1F` [Example 40], the IC50 is 120 pM.
